Data set [1] can be described thus: Cellular toxicity assay in CEM cells. Type of data set: cell-based. To be noted: human, read-out: Cytotoxicity, CC50 (μM) CEM. The method, then:
(§1) The toxicity of the compounds was assessed in Vero, human PBM, CEM (human lymphoblastoid), MT-2, and HepG2 cells, as described previously (see Schinazi R. F., Sommadossi J.-P., Saalmann V., Cannon D. L., Xie M.-Y., Hart G. C., Smith G. A. & Hahn E. F. Antimicrob. Agents Chemother. 1990, 34, 1061-67). Cycloheximide was included as positive cytotoxic control, and untreated cells exposed to solvent were included as negative controls. The cytotoxicity CC50 was obtained from the concentration-response curve using the median effective method described previously (see Chou T.-C. & Talalay P. Adv. Enzyme Regul. 1984, 22, 27-55; Belen'kii M. S. & Schinazi R. F. Antiviral Res. 1994, 25, 1-11).

Data set [2] can be described thus: Cellular toxicity assay in Huh7 cells. The settings on record: human, read-out: Cytotoxicity, CC50 (μM) Huh7. Type of data set: cell-based. The protocol: [The procedure below names another cell line; the source lists this cell line under the same test.] as §1
In data set [3] the test system is NoV replicon RNA in HG23 cells (derived from Huh-7 cells). The data set is described as follows: Norwalk virus replicon assay in HG23 cells. The settings on record: 120 h, five days incubation; for EC50: read-out: Anti-NoV activity (μM) EC50; for EC90: read-out: Anti-NoV activity (μM) EC90. Type of data set: cell-based. The protocol:
Norwalk virus replicon assays were performed as reported by Constantini et al. (Antivir Ther 2012, 17, 981-991). HG23 cells (derived from Huh-7 cells) containing NoV replicon RNA are seeded at a density of 3,000 cells/well in 96-well plates and incubated at 37° C. and 5% CO2 overnight. Compounds were tested at concentrations ranging from 0.1 to 100 μM. Compounds were added in triplicate to 80 to 90% confluent monolayers and incubated at 37° C. and 5% CO2. Untreated cells were included in each plate. Following five days incubation (37° C., 5% CO2), total cellular RNA was isolated with RNeasy96 extraction kit from Qiagen. Replicon RNA and an internal control (TaqMan rRNA control reagents, Applied Biosystems) were amplified in a single step.
The median effective concentrations (EC50) ranges of several of the compounds described herein against NoV are shown in Table 3: […]

Data set [4] can be described thus: Cellular toxicity assay in PBM cells. It counts as cell-based. To be noted: human, read-out: Cytotoxicity, CC50 (μM) PBM. The protocol: as §1
Data set [5] in a line: Cellular toxicity assay in Vero cells. The settings on record: African green monkey, read-out: Cytotoxicity, CC50 (μM) VERO. It counts as cell-based. The method, then: as §1
In another data set the target is Minerva virus protease (Norovirus GII.4 (Minerva virus), UniProt P54634). As to the kind of experiment: FRET enzyme kinetic assay, NoV GII.4 Minerva virus protease. Type of data set: biochemical. The settings on record: Minerva virus (GII.4) protease; inhibitor incubated with enzyme 90 minutes at 37° C. before FRET substrate. The protocol: The ability of these compounds to inhibit the NoV, specifically Minerva virus protease catalytic Cys139 covalently (IC50 and Ki) was determined with an enzyme kinetic assay. NoV strains, specifically GII.4 such as the Minerva virus are responsible for causing the majority (˜80%) of infections in humans. The activity of the inhibitors was evaluated by monitoring the cleavage of a FRET substrate every one minute for 20 minutes (excitation/emission: 488/520 nm) using a SpectraMax M5 microplate reader (Molecular Devices, Sunnyvale CA). Serial dilutions of each inhibitor were incubated with enzyme for 90 minutes at 37° C. before addition of the FRET substrate to ensure complete inactivation. Commercially available protease inhibitors chymostatin and rupintrivir were used as controls.

Data set [6] addresses Norovirus GI.1 (Norwalk virus) protease (Norovirus (strain Human/NoV/United States/Norwalk/1968/GI) (Hu/NV/NV/1968/US), UniProt Q83883). As to the kind of experiment: FRET based enzyme assay, Norovirus GI.1 protease. Type of data set: biochemical. To be noted: 37° C. The protocol: Norovirus GI.1 (Norwalk virus) protease were tested for enzymatic activity using a fluorescence resonance energy transfer (FRET) based enzyme assay. Norovirus GI.1 represents 5 to 10% of the clinical isolates. The FRET kinetic enzyme assays were performed as follows. The purified viral protease was diluted in reaction buffer (50 mM HEPES, pH 8.0, 120 mM NaCl, 0.4 mM EDTA, 20% glycerol, and 4 mM DTT) to a final concentration of 128 nM. Each reaction was initiated by addition of FRET substrate [(HiLyte Fluor 488) -[…]-(QXL520)]. To determine kinetic parameters, the FRET substrate was serially diluted to final concentrations of 100 μM to 49 nM and added to the reaction. The final reaction volume was 100 μL. The fluorescence emitted by substrate cleavage was monitored by a microplate reader (SpectraMax M5, Molecular Devices, Sunnyvale, CA, USA) at a 488 nm excitation wavelength with an emission wavelength of 520 nm. Readings were taken every minute for 20 minutes, and the reactions were performed at 37° C. In order to convert RFU into μM, a standard curve was created by measuring fluorescence of free HiLyte Fluor 488, which was serially diluted from 250 nM to 3.9 nM. All data were plotted and analyzed with GraphPad Prism v. 6.07.

Structures are written as SMILES.

Chain of Norovirus GI.1 (Norwalk virus) protease (Q83883 1101-1281): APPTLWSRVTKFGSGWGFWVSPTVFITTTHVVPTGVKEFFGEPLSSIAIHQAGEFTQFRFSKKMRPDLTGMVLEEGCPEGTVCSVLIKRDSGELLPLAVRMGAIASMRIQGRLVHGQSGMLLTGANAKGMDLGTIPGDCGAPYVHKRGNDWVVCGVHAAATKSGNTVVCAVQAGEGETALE
Chain of Minerva virus protease (P54634 whole entry, looked up): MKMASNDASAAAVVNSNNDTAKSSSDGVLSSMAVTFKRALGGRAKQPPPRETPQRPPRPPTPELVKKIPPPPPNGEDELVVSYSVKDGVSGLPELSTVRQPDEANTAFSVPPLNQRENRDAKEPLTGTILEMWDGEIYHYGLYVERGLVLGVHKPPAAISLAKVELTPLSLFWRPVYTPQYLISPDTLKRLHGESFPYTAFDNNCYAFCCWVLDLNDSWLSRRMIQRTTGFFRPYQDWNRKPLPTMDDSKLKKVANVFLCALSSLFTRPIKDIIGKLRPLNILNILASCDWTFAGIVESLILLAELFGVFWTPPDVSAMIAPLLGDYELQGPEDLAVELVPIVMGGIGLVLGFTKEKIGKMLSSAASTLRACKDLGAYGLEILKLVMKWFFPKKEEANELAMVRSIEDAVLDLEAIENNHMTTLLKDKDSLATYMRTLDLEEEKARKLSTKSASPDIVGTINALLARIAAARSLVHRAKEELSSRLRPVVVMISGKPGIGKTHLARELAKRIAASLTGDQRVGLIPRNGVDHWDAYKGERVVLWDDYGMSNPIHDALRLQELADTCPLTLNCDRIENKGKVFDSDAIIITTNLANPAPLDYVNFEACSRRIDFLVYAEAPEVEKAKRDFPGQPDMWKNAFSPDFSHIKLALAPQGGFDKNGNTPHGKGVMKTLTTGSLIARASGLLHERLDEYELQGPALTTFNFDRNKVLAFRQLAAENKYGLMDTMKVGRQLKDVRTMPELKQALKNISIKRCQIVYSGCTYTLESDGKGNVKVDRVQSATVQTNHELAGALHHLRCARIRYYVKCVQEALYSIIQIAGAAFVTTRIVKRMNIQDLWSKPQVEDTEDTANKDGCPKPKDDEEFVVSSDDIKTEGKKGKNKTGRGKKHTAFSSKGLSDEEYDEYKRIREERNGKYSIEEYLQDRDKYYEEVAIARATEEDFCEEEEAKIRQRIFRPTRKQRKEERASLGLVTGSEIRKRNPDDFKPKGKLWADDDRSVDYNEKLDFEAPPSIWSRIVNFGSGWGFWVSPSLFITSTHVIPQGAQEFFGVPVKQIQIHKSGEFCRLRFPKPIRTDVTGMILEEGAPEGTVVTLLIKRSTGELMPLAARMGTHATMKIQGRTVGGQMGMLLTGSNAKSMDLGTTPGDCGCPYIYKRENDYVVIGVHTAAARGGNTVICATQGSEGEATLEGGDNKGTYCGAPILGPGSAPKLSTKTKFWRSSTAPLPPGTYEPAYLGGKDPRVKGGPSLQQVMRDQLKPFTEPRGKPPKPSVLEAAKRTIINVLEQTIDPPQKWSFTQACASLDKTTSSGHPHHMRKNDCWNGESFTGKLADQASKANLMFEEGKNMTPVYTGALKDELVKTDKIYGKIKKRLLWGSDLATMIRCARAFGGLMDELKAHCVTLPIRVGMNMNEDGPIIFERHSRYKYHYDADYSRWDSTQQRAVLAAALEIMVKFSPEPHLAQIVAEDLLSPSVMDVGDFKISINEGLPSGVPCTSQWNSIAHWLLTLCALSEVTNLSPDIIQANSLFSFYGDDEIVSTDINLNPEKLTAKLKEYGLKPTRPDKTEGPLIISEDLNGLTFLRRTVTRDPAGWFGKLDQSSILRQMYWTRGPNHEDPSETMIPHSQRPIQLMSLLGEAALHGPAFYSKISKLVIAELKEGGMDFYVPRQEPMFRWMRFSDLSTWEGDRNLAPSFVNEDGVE

In the case of `CC(C)C[C@H](NC(=O)[C@H](Cc1cccc2ccccc12)NC(=O)c1cnccn1)C(=O)N[C@H](C=O)C[C@@H]1CCNC1=O` [Compound 29], the CC50 (as a rule, the concentration at which the toxic effect on the cells reaches its halfway point) was 38 µM in data set [1], over 10 µM in data set [2], over 100 µM in data set [4] and over 100 µM in data set [5]. Also, the concentration giving a half-maximal response (EC50) – broadly, the midpoint of the concentration-response curve – in data set [3] was found to be 0.08 µM. For the same compound, the 90% effect concentration (EC90) – broadly, the concentration needed for an effect of 90% – in data set [3] worked out at 0.46 µM.
Turning to `CC(C)C[C@H](NC(=O)[C@H](Cc1cccc2ccccc12)NC(=O)OCc1ccccc1)C(=O)N[C@@H](C[C@@H]1CCCNC1=O)C(O)S(=O)(=O)O` (stereo partly drawn) [Compound 37, Sodium (5S,8S,11S)-12-hydroxy-8-isobutyl-5-(naphthalen-1-ylmethyl)-3,6,9-trioxo-11-(((S)-2-oxopiperidin-3-yl)methyl)-1-phenyl-2-oxa-4,7,10-triazadodecane-12-sulfonate], the CC50 was 18 µM in data set [1], 11 µM in data set [2], 44 µM in data set [4] and over 100 µM in data set [5]. The results for the IC50 (against Minerva virus protease; in data set [6]) were 2630 ± 1040 nM and 0.654 ± 0.285 µM, respectively. Also, the Ki (usually the equilibrium dissociation constant of an inhibitor or competing ligand from its target) in data set [6] turned out to be 2240 ± 438 nM.
For the compound `CC(C)C[C@H](NC(=O)[C@H](Cc1cccc2ccccc12)NC(=O)OCc1ccccc1)C(=O)N[C@@H](C[C@@H]1CCNC1=O)C1OC1S(C)(=O)=O` (stereo partly drawn) [Compound 67, Benzyl ((2S)-1-(((2S)-4-methyl-1-(((1S)-1-(3-(methylsulfonyl)oxiran-2-yl)-2-((S)-2-oxopyrrolidin-3-yl)ethyl)amino)-1-oxopentan-2-yl)amino)-3-(naphthalen-1-yl)-1-oxopropan-2-yl)carbamate], the CC50 in data set [1] was 64 µM; in data set [4], over 100 µM; in data set [5], over 100 µM. Also, the EC50 in data set [3] is 4.33 µM. In addition, the EC90 in data set [3] was over 20 µM. Further, the IC50 – broadly, the concentration that inhibits the measured activity by half – in data set [6] is over 10 µM.
On to `CC(C)C[C@H](NC(=O)[C@H](Cc1ccc(F)cc1)NC(=O)OCc1ccccc1)C(=O)N[C@H](C=O)C[C@@H]1CCCNC1=O` [Compound 35, Benzyl ((S)-3-(4-fluorophenyl)-1-(((S)-4-methyl-1-oxo-1-(((S)-1-oxo-3-((S)-2-oxopiperidin-3-yl)propan-2-yl)amino)pentan-2-yl)amino)-1-oxopropan-2-yl)carbamate], for which the CC50 in data set [1] (CEM lymphoblastoid cells) is 35 µM; in data set [2], 60 µM; in data set [4], 52 µM; in data set [5] it was over 100 µM. The same compound yielded an IC50 in data set [6] of 0.096 ± 0.011 µM. In data set [6], the Ki is 465 ± 201 nM.
Consider `O=C(N[C@@H](Cc1cccc2ccccc12)C(=O)N[C@@H](Cc1ccccc1)C(=O)N[C@H](CCl)C[C@@H]1CCCNC1=O)OCc1ccccc1` [Compound 84, Benzyl ((S)-1-(((S)-1-(((S)-1-chloro-3-((S)-2-oxopiperidin-3-yl)propan-2-yl)amino)-1-oxo-3-phenylpropan-2-yl)amino)-3-(naphthalen-1-yl)-1-oxopropan-2-yl)carbamate], for which the CC50 in data set [1] (CEM lymphoblastoid cells) turned out to be 26.6 µM; in data set [4], 75 µM; in data set [5], 51.7 µM. Further, the EC50 in data set [3] is over 10 µM. This compound also had an IC50 in data set [6] of over 100 µM.
As to `CC(C)C[C@H](NC(=O)[C@H](Cc1cccc2ccccc12)NC(=O)OCc1ccccc1)C(=O)N[C@H](/C=C/C=O)C[C@@H]1CCNC1=O` [Compound 64, Benzyl ((S)-1-(((S)-4-methyl-1-oxo-1-(((S,E)-5-oxo-1-((S)-2-oxopyrrolidin-3-yl)pent-3-en-2-yl)amino)pentan-2-yl)amino)-3-(naphthalen-1-yl)-1-oxopropan-2-yl)carbamate], it took 10 µM to reach half-maximal inhibition in data set [6] (IC50).
As for `CC(C)C[C@H](NC(=O)[C@H](Cc1cccc2ccccc12)NC(=O)c1cnccn1)C(=O)N[C@H](C=O)C[C@@H]1CCCNC1=O` [Compound 23], the CC50 was 39 µM in data set [1], over 10 µM in data set [2], over 100 µM in data set [4] and over 100 µM in data set [5]. Also, in data set [3], the concentration for a half-maximal effect (EC50) came to 0.07 µM. The concentration for an effect of 90% (EC90) in data set [3] was determined as 0.33 µM.
Take `O=C[C@H](C[C@@H]1CCCNC1=O)NC(=O)[C@H](Cc1ccccc1)NC(=O)[C@H](Cc1cccc2ccccc12)NC(=O)OCc1ccccc1` [Compound 83, Benzyl ((S)-3-(naphthalen-1-yl)-1-oxo-1-(((S)-1-oxo-1-(((S)-1-oxo-3-((S)-2-oxopiperidin-3-yl)propan-2-yl)amino)-3-phenylpropan-2-yl)amino)propan-2-yl)carbamate]: the CC50 stood at 17 µM in data set [1] (CEM lymphoblastoid cells), 48.7 µM in data set [4] and 41.2 µM in data set [5]. Besides, in data set [3], the EC50 was 0.33 µM. The EC90 in data set [3] was 0.91 µM. For the same compound, the IC50 in data set [6] was 0.084 ± 0.019 µM. The compound further had a Ki in data set [6] of 256 ± 57 nM.
Turning to `CC(C)C[C@H](NC(=O)[C@H](Cc1cccc2ccccc12)NC(=O)OCc1ccccc1)C(=O)N[C@H](C=O)C[C@@H]1CCCNC1=O` [Compound 19], the CC50 in data set [1] was 32 µM; in data set [2] it was over 10 µM; in data set [4] it was 24 µM; in data set [5], 20 µM. Besides, the EC50 in data set [3] turned out to be 0.07 µM. In addition, in data set [3], the EC90 turned out to be 0.27 µM.
`CC(C)C[C@H](NC(=O)[C@H](Cc1cccc2ccccc12)NC(=O)OCc1ccccc1)C(=O)N[C@@H](C[C@@H]1CCCNC1=O)C(O)C(F)(F)F` (stereo partly drawn) [Compound 38, Benzyl ((2S)-1-(((2S)-4-methyl-1-oxo-1-(((2S)-4,4,4-trifluoro-3-hydroxy-1-((S)-2-oxopiperidin-3-yl)butan-2-yl)amino)pentan-2-yl)amino)-3-(naphthalen-1-yl)-1-oxopropan-2-yl)carbamate]: the CC50 came to 6 µM in data set [1] (CEM lymphoblastoid cells), 13 µM in data set [2], 18 µM in data set [4] and 22 µM in data set [5]. In data set [6], this compound came in with an IC50 of over 10 µM.
Consider `CC(C)C[C@H](NC(=O)[C@H](Cc1cccc2ccccc12)NC(=O)OCc1ccccc1)C(=O)N[C@@H](C[C@@H]1CCCNC1=O)C(=O)C(F)(F)F` [Compound 39, Benzyl ((S)-1-(((S)-4-methyl-1-oxo-1-(((S)-4,4,4-trifluoro-3-oxo-1-((S)-2-oxopiperidin-3-yl)butan-2-yl)amino)pentan-2-yl)amino)-3-(naphthalen-1-yl)-1-oxopropan-2-yl)carbamate], for which the CC50 was 2 µM in data set [1], 14 µM in data set [2], 39 µM in data set [4] and 11 µM in data set [5]. This compound had a 50% inhibitory concentration (IC50) in data set [6] of over 10 µM.
For the compound `CC(C)C[C@H](NC(=O)[C@H](Cc1ccc(O)cc1)NC(=O)OCc1ccccc1)C(=O)N[C@H](C=O)C[C@@H]1CCCNC1=O` [Compound 11, Benzyl ((S)-3-(4-hydroxyphenyl)-1-(((S)-4-methyl-1-oxo-1-(((S)-1-oxo-3-((S)-2-oxopiperidin-3-yl)propan-2-yl)amino)pentan-2-v)amino)-1-oxopropan-2-yl)carbamate], the CC50 in data set [1] is over 100 µM; in data set [2], over 10 µM; in data set [4], over 100 µM; in data set [5], over 100 µM. Also, the EC50 in data set [3] came to 0.7 µM. The EC90 in data set [3] worked out at 2.4 µM.

The values are drawn from patent US11859014B2, “Peptidomimetics for the treatment of Norovirus infection” (EMORY UNIVERSITY, priority 2016, dated 2024).
